Assay results as given in paper PMC7318222, “A Family of Water‐Immiscible, Dipolar Aprotic, Diamide Solvents from Succinic Acid” (Chemsuschem, 2020).

Target: T1, ERα (Homo sapiens, UniProt P03372)
T1 construct: expression construct for the full-length human receptor under investigation; expressed in transfected cells; host or cells: human U2-OS cells (ATCC HTB-96), stably transfected
T1 sequence (P03372 1-595): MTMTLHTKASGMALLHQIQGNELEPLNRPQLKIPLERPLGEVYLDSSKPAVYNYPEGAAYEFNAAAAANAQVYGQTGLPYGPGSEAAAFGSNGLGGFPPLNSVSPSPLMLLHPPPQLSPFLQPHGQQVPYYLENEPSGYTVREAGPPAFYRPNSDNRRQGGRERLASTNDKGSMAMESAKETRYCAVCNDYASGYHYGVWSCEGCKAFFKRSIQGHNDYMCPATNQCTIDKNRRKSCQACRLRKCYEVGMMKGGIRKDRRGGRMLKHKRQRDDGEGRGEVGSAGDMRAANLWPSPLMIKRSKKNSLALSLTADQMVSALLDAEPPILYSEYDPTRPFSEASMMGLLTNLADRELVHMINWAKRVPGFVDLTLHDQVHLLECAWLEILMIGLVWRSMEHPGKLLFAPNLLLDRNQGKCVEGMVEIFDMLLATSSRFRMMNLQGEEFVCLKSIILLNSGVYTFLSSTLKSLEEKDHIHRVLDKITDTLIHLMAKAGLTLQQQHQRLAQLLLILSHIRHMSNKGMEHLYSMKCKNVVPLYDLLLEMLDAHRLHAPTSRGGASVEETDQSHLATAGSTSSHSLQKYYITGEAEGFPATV
Test: ERα CALUX reporter gene assay
Assay type: cell-based
Design: key: –: no effect observed up to the highest test concentration
Conditions: PC10, 24 h exposure
Text: Toluene ≥99.0%, hexane ≥99.5%,
DCM ≥99.5%, chloroform ≥99.5%, DMSO ≥99.0% were purchased from VWR. N,N-diethyl-4-nitroaniline ≥98.0% was purchased from Alfa Aeser. Cyrene was supplied by Circa group. N-butylpyrrolidinone was supplied by Eastman chemicals. N,N-dimethylformamide 99.9% and N,N-dimethylacetamide 99.9% were purchased from Fischer. The flakes of Ultrason® E3020 P Polyarylethersulfone of 55,000 Da were obtained from INGE.BASF, Germany. The CALUX cell lines have been described previously.[1] They are based on human U2-OS cells (ATCC, HTB-96) stably transfected with an expression construct for the full-length human receptor under investigation, and a reporter construct consisting of multimerized responsive elements for the cognate receptor coupled to a minimal promoter element (TATA) and a luciferase gene. Cells were maintained as described previously,[2] using cell culture media and supplements from Fisher Scientific as described in the experimental procedures section. […]
In vitro reporter gene assays
The automated CALUX assays were carried out similarly as described earlier,[12] with some adaptations. In brief, the assay was performed in CO2 independent medium (Fisher Scientific, […]
supplement (Fisher Scientific, 11574466), 10 U/mL penicillin and 10 µg/mL streptomycin. A cell suspension in assay medium was made of 1 × 10^5cells/mL, and white 384-wells plates were seeded with 30 µl cell suspension/well. After 24 h, exposure medium was prepared. A dilution series in 0.5log unit increments of each test compound (in DMSO) was added to a 96-wells plate containing assay medium (2% v/v). Of this exposure mixture, 30 µl was added to the assay plates containing the CALUX cells, resulting in a final DMSO concentration of 1%. Additionally, DMSO blanks and a full dose response curve of the relevant reference compound were included on each plate. All samples were tested in triplicate. The preparation of the compound dilution series as well as the exposure of the cells were performed on a Hamilton StarLET liquid handling robot coupled to a Cytomat incubator.
Directly after exposure, plates were sealed with non-breathing plate seals (Plate sealer, easy seal transparent; Greiner-Bio-One, 676001). After 24 h the exposure medium was removed using an EL406 washer-dispenser (BioTek) and 10 µl/well triton lysisbuffer was added by the EL406.
Subsequently, the luciferase signal was measured in a luminometer (InfinitePro coupled to a Connect Stacker, both TECAN). In order to be able to detect receptor antagonism, several assays were also performed in antagonistic mode. The assay procedure was as described above, with the only exception that the EC50 concentration of the reference agonist was present during the exposure.
The luminometer data was analysed as follows; the average of the triplicate wells was determined, and the average blank (DMSO) value was subtracted. For receptor-based assays the maximum response elicited by the reference compound was set to 100% (full receptor- or pathway activation), and the other values were scaled accordingly. […] For antagonist- and cytotoxicity experiments, PC20 values were determined instead, which was defined as the concentration where the test compound causes a 20% decrease in the basal signal, which was […]
curve, the signal induction above background (DMSO) was determined, and the concentration where the compound elicited a 1.5-fold increase above background was used as LEC.

## CCCCN(CCCC)C(=O)CCC(=O)N(CCCC)CCCC [TBSA, N,N,N′,N′‐tetrabutylsuccindiamide]
  LEC ERα: –

## CCCCN(CC)C(=O)CCC(=O)N(CC)CCCC [EBSA, N,N′‐diethyl‐N,N′‐dibutylsuccindiamide]
  LEC ERα: –

## CN1CCCC1=O [NMP, N‐methyl‐2‐pyrrolidone, reference compound]
  LEC ERα: –

## CCCCN(C)C(=O)CCC(=O)N(C)CCCC [MBSA, N,N′‐dimethyl‐N,N′‐dibutylsuccindiamide]
  LEC ERα: –

## CCCCN1CCCC1=O [NBP, N‐Butylpyrrolidinone, reference compound]
  LEC ERα: –
